System: E. coli
Assay: Antibacterial test of coating films on glass substrate in accordance with JIS 22801
Format: cell-based
Conditions: against E. coli
Method: The polyphenol derivatives (polyphenol derivatives 1 to 4) in Examples 1 to 4 and the tannic acid in Comparative Example 1 were each applied by the above method onto a 5 cm×5 cm glass substrate at a weight of 1.2 mg/cm 2 to yield a coating film. The glass substrate samples in Examples and Comparative Example each having the coating film formed by the above method were subjected to antibacterial test by a method in accordance with JIS 22801, and antibacterial activity values (against E. coli) were determined.

`O=C(OC[C@H]1O[C@@H](OC(=O)c2cc(O)c(O)c(OC(=O)c3cc(O)c(O)c(O)c3)c2)[C@H](OC(=O)c2cc(O)c(O)c(OC(=O)c3cc(O)c(O)c(O)c3)c2)[C@@H](OC(=O)c2cc(O)c(O)c(OC(=O)c3cc(O)c(O)c(O)c3)c2)[C@@H]1OC(=O)c1cc(O)c(O)c(OC(=O)c2cc(O)c(O)c(O)c2)c1)c1cc(O)c(O)c(OC(=O)c2cc(O)c(O)c(O)c2)c1` [compound 1, tannic acid] was tested, and the “Antibacterial test (antibacterial activity value)” value (coating film 1.2 mg/cm 2 on 5 cm×5 cm glass substrate) was over 5.8 and the “antibacterial activity (in words)” value (coating film) was “antibacterial activity was sufficiently achieved”.
